Source: ChEMBL document CHEMBL1147642, “Elimination of antibacterial activities of non-peptide luteinizing hormone-releasing hormone (LHRH) antagonists derived from erythromycin A” (Bioorg Med Chem Lett, 2004)
In brackets after ≈: the same amount, converted by molar mass.

Legend:
[1] = molecular target: T1, Gonadotropin-releasing hormone receptor (Homo sapiens, UniProt P30968); test: Binding affinity against human luteinizing releasing hormone receptor cloned in CHO cells; type: cell-based
T1 sequence (P30968 whole entry): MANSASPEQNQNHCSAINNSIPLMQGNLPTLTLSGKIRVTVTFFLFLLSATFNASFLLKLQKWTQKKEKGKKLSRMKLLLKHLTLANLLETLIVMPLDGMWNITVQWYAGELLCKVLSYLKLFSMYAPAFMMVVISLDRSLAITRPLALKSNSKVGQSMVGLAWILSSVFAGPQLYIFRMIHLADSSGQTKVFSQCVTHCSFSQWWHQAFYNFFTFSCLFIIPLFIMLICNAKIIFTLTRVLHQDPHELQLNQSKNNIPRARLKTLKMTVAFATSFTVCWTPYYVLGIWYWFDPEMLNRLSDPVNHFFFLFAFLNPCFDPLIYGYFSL

Micrococcus luteus = test: Minimum inhibitory activity against Micrococcus luteus ATCC 9341; type: functional
[2] = system: Staphylococcus epidermidis; test: Minimum inhibitory activity against Staphylococcus epidermidis 3519; type: functional
Streptococcus pyogenes = test: Minimum inhibitory activity against Streptococcus pyogenes EES61; type: functional
Streptococcus agalactiae = test: Minimum inhibitory activity against Streptococcus agalactiae CMX 508; type: functional
Staphylococcus aureus = test: Minimum inhibitory activity against Staphylococcus aureus ATCC 6538P; type: functional
Streptococcus equinus = test: Minimum inhibitory activity against Streptococcus bovis A-5169; type: functional
Enterococcus faecium = test: Minimum inhibitory activity against Enterococcus faecium ATCC 8043; type: functional

Row | Ki [1] [nM] | MIC (Micrococcus luteus) [µg/mL] | MIC [2] [µg/mL] | MIC (Streptococcus pyogenes) [µg/mL] | MIC (Streptococcus agalactiae) [µg/mL] | MIC (Staphylococcus aureus) [µg/mL] | MIC (Streptococcus equinus) [µg/mL] | MIC (Enterococcus faecium) [µg/mL] | Structure (SMILES)
1 | 7.59 | 1.56 (≈ 1.62 µM) | 50 (≈ 51.8 µM) | 0.78 (≈ 0.808 µM) | 0.78 (≈ 0.808 µM) | 25 (≈ 25.9 µM) | 0.78 (≈ 0.808 µM) | 1.56 (≈ 1.62 µM) | CC[C@H]1OC(=O)[C@H](C)[C@@H](OC2C[C@@](C)(OC)[C@@H](O)[C@H](C)O2)[C@H](C)[C@@H](OC2O[C@H](C)C[C@H](N(C)C3CCCC3)[C@H]2O)[C@@](C)(OC)C[C@@H](C)C(=O)[C@H](C)[C@H]2N(CCc3ccc(Cl)cc3)C(=O)O[C@]12C (stereo partly specified)
2 | 204 | 12.5 (≈ 12.8 µM) | > 100 | 0.78 (≈ 0.796 µM) | 12.5 (≈ 12.8 µM) | > 100 | 3.1 (≈ 3.16 µM) | 25 (≈ 25.5 µM) | CC[C@H]1OC(=O)[C@H](C)[C@@H](OC2C[C@@](C)(OC)[C@@H](O)[C@H](C)O2)[C@H](C)[C@@H](OC2O[C@H](C)C[C@H](N(C)C3CCCCC3)[C@H]2O)[C@@](C)(OC)C[C@@H](C)C(=O)[C@H](C)[C@H]2N(CCc3ccc(Cl)cc3)C(=O)O[C@]12C (stereo partly specified)
3 | – | 0.78 (≈ 1.04 µM) | 12.5 (≈ 16.6 µM) | – | 0.02 (≈ 0.0265 µM) | 12.5 (≈ 16.6 µM) | – | 1.56 (≈ 2.07 µM) | CC[C@H]1OC(=O)[C@H](C)[C@@H](O)[C@H](C)[C@@H](OC2O[C@H](C)C[C@H](N(C)C)[C@H]2O)[C@@](C)(OC)C[C@@H](C)C(=O)[C@H](C)[C@H]2N(CCc3ccc(Cl)cc3)C(=O)O[C@]12C (stereo partly specified)
4 | 27.5 | > 100 | > 100 | > 100 | > 100 | > 100 | > 100 | > 100 | CCC(C)N(CC1CC1)[C@H]1C[C@@H](C)OC(O[C@@H]2[C@@H](C)[C@H](OC3C[C@@](C)(OC)[C@@H](O)[C@H](C)O3)[C@@H](C)C(=O)O[C@H](CC)[C@@]3(C)OC(=O)N(CCc4ccc(Cl)cc4)[C@@H]3[C@@H](C)C(=O)[C@H](C)C[C@]2(C)OC)[C@@H]1O (stereo partly specified)
5 | 191 | 0.05 (≈ 0.0549 µM) | 0.39 (≈ 0.428 µM) | – | 0.2 (≈ 0.219 µM) | 0.39 (≈ 0.428 µM) | 0.2 (≈ 0.219 µM) | 0.1 (≈ 0.11 µM) | CC[C@H]1OC(=O)[C@H](C)[C@@H](OC2C[C@@](C)(OC)[C@@H](O)[C@H](C)O2)[C@H](C)[C@@H](OC2O[C@H](C)C[C@H](N(C)C)[C@H]2O)[C@@](C)(OC)C[C@@H](C)C(=O)[C@H](C)[C@H]2N(CCc3ccc(Cl)cc3)C(=O)O[C@]12C (stereo partly specified)
6 | – | – | 1.56 (≈ 1.66 µM) | – | 0.02 (≈ 0.0213 µM) | 1.56 (≈ 1.66 µM) | 0.2 (≈ 0.213 µM) | 0.2 (≈ 0.213 µM) | CC[C@H]1OC(=O)[C@H](C)[C@@H](OC2C[C@@](C)(OC)[C@@H](O)[C@H](C)O2)[C@H](C)[C@@H](OC2O[C@H](C)C[C@H](N(C)C(C)C)[C@H]2O)[C@@](C)(OC)C[C@@H](C)C(=O)[C@H](C)[C@H]2N(CCc3ccc(Cl)cc3)C(=O)O[C@]12C (stereo partly specified)
7 | – | 0.02 (≈ 0.0273 µM) | 0.2 (≈ 0.273 µM) | 0.05 (≈ 0.0681 µM) | 0.05 (≈ 0.0681 µM) | 0.2 (≈ 0.273 µM) | 0.05 (≈ 0.0681 µM) | 0.05 (≈ 0.0681 µM) | CC[C@H]1OC(=O)[C@H](C)[C@@H](O[C@H]2C[C@@](C)(OC)[C@@H](O)[C@H](C)O2)[C@H](C)[C@@H](O[C@@H]2O[C@H](C)C[C@H](N(C)C)[C@H]2O)[C@](C)(O)C[C@@H](C)C(=O)[C@H](C)[C@@H](O)[C@]1(C)O [ERYTHROMYCIN]
8 | – | 1.56 (≈ 1.66 µM) | 50 (≈ 53.3 µM) | 0.39 (≈ 0.416 µM) | 0.39 (≈ 0.416 µM) | 100 (≈ 107 µM) | 0.39 (≈ 0.416 µM) | 1.56 (≈ 1.66 µM) | CC[C@H]1OC(=O)[C@H](C)[C@@H](OC(=O)N2C(=O)OC[C@@H]2C)[C@H](C)[C@@H](OC2O[C@H](C)C[C@H](N(C)CC3CC3)[C@H]2O)[C@@](C)(OC)C[C@@H](C)C(=O)[C@H](C)[C@H]2N(CCc3ccc(F)c(Cl)c3)C(=O)O[C@]12C (stereo partly specified)
9 | 79.4 | 0.2 (≈ 0.223 µM) | 1.56 (≈ 1.74 µM) | 0.1 (≈ 0.111 µM) | 0.05 (≈ 0.0557 µM) | 1.56 (≈ 1.74 µM) | 0.2 (≈ 0.223 µM) | 0.39 (≈ 0.435 µM) | CC[C@H]1OC(=O)[C@H](C)[C@@H](OC2C[C@@](C)(OC)[C@@H](O)[C@H](C)O2)[C@H](C)[C@@H](OC2O[C@H](C)C[C@H](NC)[C@H]2O)[C@@](C)(OC)C[C@@H](C)C(=O)[C@H](C)[C@H]2N(CCc3ccc(Cl)cc3)C(=O)O[C@]12C (stereo partly specified)
10 | 7.24 | > 100 | > 100 | 6.2 (≈ 6.31 µM) | 6.2 (≈ 6.31 µM) | > 100 | 6.2 (≈ 6.31 µM) | > 100 | CC[C@H]1OC(=O)[C@H](C)[C@@H](OC(=O)N2C(=O)OC[C@@H]2C)[C@H](C)[C@@H](OC2O[C@H](C)C[C@H](N(C)C3CCCCC3)[C@H]2O)[C@@](C)(OC)C[C@@H](C)C(=O)[C@H](C)[C@H]2N(CCc3ccc(Cl)c(Cl)c3)C(=O)O[C@]12C (stereo partly specified)
11 | – | 3.1 (≈ 3.25 µM) | > 100 | 0.78 (≈ 0.817 µM) | 0.78 (≈ 0.817 µM) | > 100 | 0.78 (≈ 0.817 µM) | 3.1 (≈ 3.25 µM) | CC[C@H]1OC(=O)[C@H](C)[C@@H](OC(=O)N2C(=O)OC[C@@H]2C)[C@H](C)[C@@H](O[C@@H]2O[C@H](C)C[C@H](N(C)CC3CC3)[C@H]2O)[C@@](C)(OC)C[C@@H](C)C(=O)[C@H](C)[C@H]2N(CCc3ccc(Cl)c(Cl)c3)C(=O)O[C@]12C
12 | 3.89 | 12.5 (≈ 13.4 µM) | > 100 | 3.1 (≈ 3.32 µM) | 3.1 (≈ 3.32 µM) | > 100 | 3.1 (≈ 3.32 µM) | 6.2 (≈ 6.63 µM) | CC[C@H]1OC(=O)[C@H](C)[C@@H](OC(=O)N2C(=O)OC[C@@H]2C)[C@H](C)[C@@H](OC2O[C@H](C)C[C@H](N(C)C3CCCC3)[C@H]2O)[C@@](C)(OC)C[C@@H](C)C(=O)[C@H](C)[C@H]2N(CCc3ccc(Cl)cc3)C(=O)O[C@]12C (stereo partly specified)
13 | 13.2 | – | > 100 | – | 1.56 (≈ 1.64 µM) | > 100 | – | 1.56 (≈ 1.64 µM) | CC[C@H]1OC(=O)[C@H](C)[C@@H](OC2C[C@@](C)(OC)[C@@H](O)[C@H](C)O2)[C@H](C)[C@@H](OC2O[C@H](C)C[C@H](N(C)CC3CC3)[C@H]2O)[C@@](C)(OC)C[C@@H](C)C(=O)[C@H](C)[C@H]2N(CCc3ccc(Cl)cc3)C(=O)O[C@]12C (stereo partly specified)
14 | 1.51 | 3.1 (≈ 3.1 µM) | > 100 | 3.1 (≈ 3.1 µM) | 3.1 (≈ 3.1 µM) | > 100 | 3.1 (≈ 3.1 µM) | 3.1 (≈ 3.1 µM) | CC[C@H]1OC(=O)[C@H](C)[C@@H](OC2C[C@@](C)(OC)[C@@H](O)[C@H](C)O2)[C@H](C)[C@@H](OC2O[C@H](C)C[C@H](N(C)C3CCCC3)[C@H]2O)[C@@](C)(OC)C[C@@H](C)C(=O)[C@H](C)[C@H]2N(CCc3ccc(Cl)c(Cl)c3)C(=O)O[C@]12C (stereo partly specified)
15 | 0.851 | 25 (≈ 24.8 µM) | > 100 | 25 (≈ 24.8 µM) | 50 (≈ 49.5 µM) | > 100 | 25 (≈ 24.8 µM) | 25 (≈ 24.8 µM) | CC[C@H]1OC(=O)[C@H](C)[C@@H](OC2C[C@@](C)(OC)[C@@H](O)[C@H](C)O2)[C@H](C)[C@@H](OC2O[C@H](C)C[C@H](N(CC3CC3)CC3CC3)[C@H]2O)[C@@](C)(OC)C[C@@H](C)C(=O)[C@H](C)[C@H]2N(CCc3ccc(F)c(Cl)c3)C(=O)O[C@]12C (stereo partly specified)
16 | 18.6 | 12.5 (≈ 13.6 µM) | > 100 | 0.78 (≈ 0.847 µM) | 1.56 (≈ 1.69 µM) | 100 (≈ 109 µM) | 0.78 (≈ 0.847 µM) | 3.1 (≈ 3.37 µM) | CC[C@H]1OC(=O)[C@H](C)[C@@H](OC(=O)N2C(=O)OC[C@@H]2C)[C@H](C)[C@@H](OC2O[C@H](C)C[C@H](N(C)CC3CC3)[C@H]2O)[C@@](C)(OC)C[C@@H](C)C(=O)[C@H](C)[C@H]2N(CCc3ccc(Cl)cc3)C(=O)O[C@]12C (stereo partly specified)
17 | – | 0.78 (≈ 0.859 µM) | 25 (≈ 27.5 µM) | 0.02 (≈ 0.022 µM) | – | 25 (≈ 27.5 µM) | 0.1 (≈ 0.11 µM) | 0.78 (≈ 0.859 µM) | CC[C@H]1OC(=O)[C@H](C)[C@@H](OC(=O)N2C(=O)OC[C@@H]2C)[C@H](C)[C@@H](OC2O[C@H](C)C[C@H](N(C)C(C)C)[C@H]2O)[C@@](C)(OC)C[C@@H](C)C(=O)[C@H](C)[C@H]2N(CCc3ccc(Cl)cc3)C(=O)O[C@]12C (stereo partly specified)
